From patent publication US10822587B2, “T cell balance gene expression, compositions of matters and methods of use thereof” (The Broad Institute, Inc., priority 2013, dated 2020)
Entries after “also recorded” stand apart in the source; their conditions may differ.

Experiments:
Th17 cells = assay: IL-17 / IFN-γ production of Th17 cells differentiated with activated protein C (intracellular staining, ELISA); format: cell-based, mouse; details: aPC 300 nM, anti-CD3/anti-CD28, TGF-β+IL-6; flow cytometry day 3, ELISA day 3 and 5
Protocol: FIG. 20A depicts how naïve CD4+ T cells were differentiated into Th17 cells by anti-CD3/anti-CD28 stimulation in the presence of activated protein C (aPC, 300 nM), the ligand of PROCR. On day 3, cells were stimulated with PMA and Ionomycin for 4 hr, stained intracellularly for IFN-γ and IL-17 and analyzed by flow cytometry. FIG. 20B depicts IL-17 production from Th17 cells (TGF-β+IL-6) differentiated with or without activated protein C (aPC and Ctl, respectively) was assessed by ELISA on Day 3 and 5. FIG. 20C depicts how naïve CD4+ T cells were polarized under Th17 conditions (TGF-β+IL-6), transduced with either GFP control retrovirus (Ctl RV) or PROCR-expressing retrovirus (PROCR RV). Intracellular expression of IFN-γ and IL-17 in GFP+ cells were assessed by flow cytometry. FIG. 20D depicts how naïve CD4+ T cells from EPCR δ/δmice and control mice were polarized under Th17 conditions with TGF-β1 and IL-6. Intracellular expression of IFN-γ and IL-17 were assessed by flow cytometry. […]
Naïve T cells from knockout mice and their wild type controls were cultured as described above, their supernatants were collected after 72 h, and cytokine concentrations were determined by ELISA (antibodies for IL-17 and IL-10 from BD Bioscience) or by cytometric bead array for the indicated cytokines (BD Bioscience), according to the manufacturers' instructions (FIG. 5, FIG. 16).

PROCR = target: T1, PROCR (Mus musculus, UniProt Q64695); assay: Quantitative RT-PCR of pathogenic signature genes in Th17 cells differentiated in the presence of activated protein C; format: cell-based
T1 construct: endogenous in cells; host or cells: primary naïve CD4+ T cells (mouse spleen/lymph node) polarized to Th17 with TGF-β1 + IL-6
T1 sequence (Q64695 18-242): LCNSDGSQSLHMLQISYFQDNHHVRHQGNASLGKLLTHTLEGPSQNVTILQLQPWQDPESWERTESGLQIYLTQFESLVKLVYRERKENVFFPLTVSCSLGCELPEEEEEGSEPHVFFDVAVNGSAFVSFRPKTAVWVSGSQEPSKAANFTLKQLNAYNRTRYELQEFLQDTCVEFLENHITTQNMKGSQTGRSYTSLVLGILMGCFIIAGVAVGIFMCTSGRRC
From the text: FIG. 23A depicts quantitative RT-PCR analysis of mRNA expression of several pathogenic signature genes in Th17 cells differentiated with TGFβ1 and IL-6 in the presence of activated protein C (aPC) for 3 days in vitro. FIG. 23B depicts quantitative RT-PCR analysis of mRNA expression of several pathogenic signature genes in naïve CD4^+ T cells polarized under Th17 conditions, transduced with either GFP control retrovirus (Control RV) or PROCR-expressing retrovirus (PROCR RV) for 3 days. FIG. 23C depicts quantitative RT-PCR analysis of mRNA expression of several pathogenic signature genes in Th17 cells from EPCR δ/δmice and control mice differentiated with TGFβ1 and IL-6 for 3 days in vitro.
FIGS. 32A, 32B, 32C and 32D are a series of graphs depicting how PROCR and PD-1 expression affects Th17 pathogenicity. FIG. 32A depicts signature genes of pathogenic and non-pathogenic Th17 cells. Naïve CD4+ T cells were differentiated into non-pathogenic (TGFβ+IL-6) or pathogenic (TGFβ3+IL-6 or IL-β+IL-6) Th17 cells and PROCR expression was determined by quantitative PCR. FIG. 32B depicts how naïve WT or PROCRd/d CD4+ T cells were stimulated under Th17 polarizing conditions (TGFβ+IL-6) in the presence or absence of aPC. Quantitative expression of three pathogenic signature genes was determined on day 3. […] Mice were monitored for EAE. […]. […]

activated protein C
cytokine production (IL-17, IFN-γ) from Th17 cells (Th17 cells): not essential for cytokine production from Th17 cells
mRNA expression of pathogenic signature genes (PROCR; Th17 cells differentiated with TGFβ1 and IL-6 in the presence of aPC for 3 days in vitro): impairs some pathogenic signature genes in Th17 cells; also recorded: induces a downregulation of the pathogenic signature genes IL-3, CXCL3, CCL4 and Pdp; also recorded: decreased the expression of some of the genes identified as a part of the pathogenic signature of Th17 cells
expression of non-pathogenic signature genes (PROCR; Th17 polarizing conditions (TGFβ+IL-6) in the presence or absence of aPC, day 3): induces some non-pathogenic signature genes
